From patent US20170313974A1, “Modulation of Tissue Fatty Acid Composition of a Host by Human Gut Bacteria” (University College Cork, National University of Ireland, priority 2007, published 2017)

Tests used:
Assay type in all cases: in vivo
[1] = tested on: Myeloperoxidase (MPO) activity in colonic homogenates; experiment: Colonic mucosal myeloperoxidase (MPO) activity in SCID mice with colitis; conditions: 10 weeks, mean ± SD, n = 8
Description: (§1) Materials and Methods Severe Combined Immuno Deficient (SCID) mice were used in this study, which had been induced with colitis through adoptive transfer of splenic CD4^+ CD45RB^high T cells from BALB/c mice. […] Ten weeks after colitis induction, cytokine production by splenocytes was measured in vitro by ELISA, myeloperoxidase (MPO) activity was determined in colonic homogenates and fatty acid composition in liver, adipose tissue, cecum and colon was determined by gas liquid chromatography (GLC). Similar studies have also been conducted in pigs (data not shown here) and similar results obtained.
(§2) SCID mice were purchased from Harlan ltd. (Briester, Oxon, UK) at 6 weeks of age and fed a normal diet for 1 week to stabilize all metabolic conditions. Each cage contained one mouse. Mice were exposed to a 12-h light:dark cycle and maintained at a constant temperature of 25° C. One week after arrival, mice were divided into five groups for different dietary treatments (Table I).
SCID mice were induced with colitis through adoptive transfer of the CD4^+ CD45RB^high subpopulation of CD4+ T cells from normal BALB/c mice (Mackay et al. 1998). […]
Myeloperoxidase activity was measured according to the method by Krawisz et al. (24). […] The absorbance (OD) was measured spectrophotometrically at 450 nm at 1 min intervals for 15 min. […] Results are expressed as U/mg protein.

splenocytes = experiment: Cytokine production by stimulated splenocytes of fed SCID mice with colitis
Description: as §1
Cytokine production in response to defined stimuli, in vitro, was measured using enzyme-linked immunosorbent assay (ELISA). Splenocyte isolation was performed using an erythrocyte lysing kit (R&D Systems). The spleens of all mice were removed at the time of sacrifice, blotted on filter paper and weighed. Each spleen was immediately placed in Hanks' buffer containing 10% fetal calf serum. The spleen was teased apart and sieved through a cell strainer into a 50 ml centrifuge tube. Cells were centrifuged for 10 minutes at 200 g. The cells were resuspended in 2 ml M-lyse buffer, which lyses red blood cells, and incubated for 8 minutes at room temperature. Lysis was deactivated using wash buffer and the cell suspension was centrifuged for 10 minutes at 200 g. Cells were resuspended in DMEM (10% fetal calf serum, 1% Pen/Strep, Sigma) and diluted to 1×10^6 cells/ml for in vitro culturing. The isolated lymphocytes were cocultured with the proinflammatory bacterium Salmonella typhimurium UK1 (1×10^6 cells/ml) and with antiCD3-antiCD28 monoclonal antibodies for 48 hours at 37° C. Cell supernatants were isolated and stored at −80° C. Cytokine analysis was performed on the supernatants using a BD™ Cytometric Bead Array (CBA) Mouse Inflammation Kit (BD Biosciences, US).

BALB/c mice = experiment: Tissue and faecal fatty acid composition, BALB/c LA feeding trial (8 weeks)
Description: Male BALB/c mice were purchased from Harlan Ltd. (Briester, Oxon, UK). One week after arrival, these mice were divided into two groups (n=9) for different dietary treatments. […] Group B received 1% LA in their diet. For LA treatment, a powdered diet blended with the drug was administered for 8 weeks to yield a dose of drug at approximately 90 mg/day/mouse (this is based on preliminary experiments by Bassaganya-Riera et al. (1) that established an optimal dose of fatty acids of 1 g/100 g).
After 8 weeks on experimental diets, the mice were sacrificed by cervical dislocation. Livers, hearts, colons, small intestines and cecums were removed from the carcasses, blotted dry on filter paper, weighed and frozen in liquid nitrogen. All samples were stored at −80° C. until processed.
(§3) Lipids were extracted with Chloroform:Methanol 2:1 v/v according to Folch et al. (25). Briefly, tissue or faecal samples, ˜1 g liver, 300 mg small intestine, 200 mg adipose tissue, 250 mg colon, 800 mg cecum or 100 mg feaces were homogenised in over a 25 fold excess of CHCl3:CH3OH (2:1 v/v) and washed with 0.88% KCl solution. Excess solvent was dried down under a gentle stream of N2 at 40° C. and lipids were stored at −20° C. in 1 ml chloroform. Fatty acid methyl esters (FAME) were prepared using first 10 ml 0.5N NaOH in methanol for 10 min at 90° C. followed by 10 ml 14% BF3 in methanol for 10 min at 90° C. (26). FAME was recovered with hexane. Prior to GC analysis samples were dried over 0.5 g of anhydrous sodium sulphate for an hour and stored at −20° C. FAME were separated by gas liquid chromatography (GLC Varian 3400, Varian, Walnut Creek, Calif. USA fitted with a flame ionization detector) using a Chrompack CP Sil 88 column (Chrompack, Middleton, The Netherlands, 100 m×0.25 mm i.d., 0.20 μm film thickness) and He as a carrier gas. The column oven was programmed to be held initially at 80° C. for 8 minutes then increased 8.5° C./min to a final column temperature of 200° C. The injection volume used was 0.6 μl with automatic sample injection with a splitless on SPI on-column temperature programmable injector. Data was recorded and analysed on a Minichrom PC system (VG Data System, Manchester, U.K.). Tri-heptadecanoate (Sigma) was used as an internal standard, and peaks were identified with reference to retention times of fatty acids in a standard mixture. All fatty acid results are shown as mean±SD (n=8) g/100 g FAME.

SCID mice = experiment: Tissue fatty acid composition, SCID mouse colitis feeding study (10 weeks)
Description: as §1, §2
For linoleic acid and c9t11 CLA treatment, a powdered diet blended with the drug was administered for 10 weeks to yield a dose of drug at approximately 90 mg/day/mouse (this is based on preliminary experiments by Bassaganya-Riera et al. (22) that established an optimal dose of fatty acids of 1 g/100 g of diet).
After the adoptive transfer, mice were weighed three times a week and examined for clinical signs of disease associated with colitis (ie. rectal bleeding, diarrhoea and rectal prolapse). After 10 weeks on experimental diets, the mice were sacrificed by cervical dislocation. Livers, adipose tissue, spleens, colons and cecums were removed from the carcasses, blotted dry on filter paper, weighed and frozen in liquid nitrogen. All samples were stored at −80° C. until processed. The colon was divided into different sections for MPO activity and fatty acid composition.
as §3

[2] = stimulation with S. typhimurium UK1
[3] = stimulation with antiCD3-antiCD28

With `CCCCC/C=C\C/C=C\CCCCCCCC(=O)O` [LA, linoleic acid] the MPO colon [1] was 1.16 ± 0.23 U/mg protein, the proinflammatory cytokines (splenocytes; compared to control) was “no reduction” and the LA in faeces (BALB/c mice; faeces after 8 weeks) was 27.4±7.16. For the same molecule, the “c9, t11 CLA in faeces” value (BALB/c mice; faeces harvested after 8 weeks) was 0.35±0.25 g/100 g FAME, the “c9, t11 CLA in large intestine” value (BALB/c mice; large intestine, 8 weeks) was 0.07±0.02 g/100 g FAME and the “c9, t11 CLA in liver” value (BALB/c mice; liver, 8 weeks) was 0.05±0.03 g/100 g FAME. For the same molecule, the “c9, t11 CLA in small intestine” value (BALB/c mice; small intestine, 8 weeks) was 0.03±0.01, the “c9, t11 CLA in cecum digesta” value (SCID mice; cecum digesta, mean ± SD, n = 8) was 0.08 ± 0.02^ g/100 g FAME and the “c9, t11 CLA in faeces” value (SCID mice; faeces) was 0.09 g/100 g FAME. For the same molecule, the “c9, t11 CLA in liver” value (SCID mice; liver, mean ± SD, n = 8) was 0.01 ± 0.01^2 g/100 g FAME.

With `CCCCCC/C=C/C=C\CCCCCCCC(=O)O` [c9, t11 CLA, cis-9, trans-11 CLA] the IFN-γ levels (splenocytes; [2]) was “reduced”, the IL-6 levels (splenocytes; [2]) was “reduced” and the TNF-α levels (splenocytes; [2]) was 1428.7. For the same molecule, the IFN-γ levels (splenocytes; [3]) was 1334.2, the IL-6 levels (splenocytes; [3]) was 213.7 and the TNF-α levels (splenocytes; [3]) was 458.9. The “16:1n-7 (palmitoleic acid) in all tissues” value (SCID mice; all tissues) was “higher”, the “20:4n-6 in cecum digests” value (SCID mice; cecum digests) was “significant decrease” and the “16:0 (palmitic acid) in colon” value (SCID mice; colon) was “significantly higher”. For the same molecule, the “arachidonic acid, 20:4n-6 (AA) in liver” value (SCID mice; compared to other groups) was “decrease” and the “c9, t11 CLA in all tissues” value (SCID mice; compared to other groups) was “much higher”.
